According to ChEMBL document CHEMBL4308854, “Novel indole-thiazolidinone conjugates: Design, synthesis and whole-cell phenotypic evaluation as a novel class of antimicrobial agents” (Eur J Med Chem, 2018):
In brackets after ≈: the same amount, converted by molar mass.

What was measured:
Staphylococcus aureus [1] = experiment: Potency index, ratio of ciprofloxacin MIC to compound MIC for Staphylococcus aureus RCMB 010028; type: functional
M14 = experiment: Growth inhibition of human M14 cells assessed as cell growth at 10^-5 M incubated for 48 hrs by sulforhodamine B assay relative to control; type: cell-based; design: scale not given: the % may be the effect or the level left; details: m14, 48 h, 10 µM
MOLT-4 = experiment: Growth inhibition of human MOLT4 cells assessed as cell growth at 10^-5 M incubated for 48 hrs by sulforhodamine B assay relative to control; type: cell-based; design: scale not given: the % may be the effect or the level left; details: molt-4, 48 h, 10 µM
SN12C = experiment: Growth inhibition of human SN12C cells assessed as cell growth at 10^-5 M incubated for 48 hrs by sulforhodamine B assay relative to control; type: cell-based; design: scale not given: the % may be the effect or the level left; details: 10 µM
NCI-H460 = experiment: Growth inhibition of human NCI-H460 cells assessed as cell growth at 10^-5 M incubated for 48 hrs by sulforhodamine B assay relative to control; type: cell-based; design: scale not given: the % may be the effect or the level left; details: nci-h460, 48 h, 10 µM
Malme-3M = experiment: Growth inhibition of human MALME-3M cells assessed as cell growth at 10^-5 M incubated for 48 hrs by sulforhodamine B assay relative to control; type: cell-based; design: scale not given: the % may be the effect or the level left; details: 10 µM
COLO 205 = experiment: Growth inhibition of human COLO205 cells assessed as cell growth at 10^-5 M incubated for 48 hrs by sulforhodamine B assay relative to control; type: cell-based; design: scale not given: the % may be the effect or the level left; details: colo 205, 48 h, 10 µM
RPMI-8226 = experiment: Growth inhibition of human RPMI8226 cells assessed as cell growth at 10^-5 M incubated for 48 hrs by sulforhodamine B assay relative to control; type: cell-based; design: scale not given: the % may be the effect or the level left; details: rpmi-8226, 48 h, 10 µM
U-251 = experiment: Growth inhibition of human U251 cells assessed as cell growth at 10^-5 M incubated for 48 hrs by sulforhodamine B assay relative to control; type: cell-based; design: scale not given: the % may be the effect or the level left; details: u-251, 48 h, 10 µM
UACC-62 = experiment: Growth inhibition of human UACC62 cells assessed as cell growth at 10^-5 M incubated for 48 hrs by sulforhodamine B assay relative to control; type: cell-based; design: scale not given: the % may be the effect or the level left; details: uacc-62, 48 h, 10 µM
Hs-578T = experiment: Growth inhibition of human Hs 578T cells assessed as cell growth at 10^-5 M incubated for 48 hrs by sulforhodamine B assay relative to control; type: cell-based; design: scale not given: the % may be the effect or the level left; details: 10 µM
NCI-H226 = experiment: Growth inhibition of human NCI-H226 cells assessed as cell growth at 10^-5 M incubated for 48 hrs by sulforhodamine B assay relative to control; type: cell-based; design: scale not given: the % may be the effect or the level left; details: nci-h226, 48 h, 10 µM
DU-145 = experiment: Growth inhibition of human DU145 cells assessed as cell growth at 10^-5 M incubated for 48 hrs by sulforhodamine B assay relative to control; type: cell-based; design: scale not given: the % may be the effect or the level left; details: du-145, 48 h, 10 µM
HT-29 = experiment: Growth inhibition of human HT-29 cells assessed as cell growth at 10^-5 M incubated for 48 hrs by sulforhodamine B assay relative to control; type: cell-based; design: scale not given: the % may be the effect or the level left; details: ht-29, 48 h, 10 µM
Pseudomonas aeruginosa = experiment: Antibacterial activity against Pseudomonas aeruginosa RCMB 010043 after 24 hrs by serial dilution method; type: functional; details: RCMB 010043, 24 h
MDA-MB-435 = experiment: Growth inhibition of human MDA-MB-435 cells assessed as cell growth at 10^-5 M incubated for 48 hrs by sulforhodamine B assay relative to control; type: cell-based; design: scale not given: the % may be the effect or the level left; details: mda-mb-435, 48 h, 10 µM
LOX IMVI = experiment: Growth inhibition of human LOXIMVI cells assessed as cell growth at 10^-5 M incubated for 48 hrs by sulforhodamine B assay relative to control; type: cell-based; design: scale not given: the % may be the effect or the level left; details: 10 µM
EKVX = experiment: Growth inhibition of human EKVX cells assessed as cell growth at 10^-5 M incubated for 48 hrs by sulforhodamine B assay relative to control; type: cell-based; design: scale not given: the % may be the effect or the level left; details: 10 µM
CCRF-CEM = experiment: Growth inhibition of human CCRF-CEM cells assessed as cell growth at 10^-5 M incubated for 48 hrs by sulforhodamine B assay relative to control; type: cell-based; design: scale not given: the % may be the effect or the level left; details: 10 µM
UACC-257 = experiment: Growth inhibition of human UACC257 cells assessed as cell growth at 10^-5 M incubated for 48 hrs by sulforhodamine B assay relative to control; type: cell-based; design: scale not given: the % may be the effect or the level left; details: uacc-257, 48 h, 10 µM
T47D = experiment: Growth inhibition of human T47D cells assessed as cell growth at 10^-5 M incubated for 48 hrs by sulforhodamine B assay relative to control; type: cell-based; design: scale not given: the % may be the effect or the level left; details: 10 µM
A498 = experiment: Growth inhibition of human A498 cells assessed as cell growth at 10^-5 M incubated for 48 hrs by sulforhodamine B assay relative to control; type: cell-based; design: scale not given: the % may be the effect or the level left; details: a498, 48 h, 10 µM
Staphylococcus aureus [2] = experiment: Antibacterial activity against Staphylococcus aureus RCMB 010028 assessed as diameter of zone inhibition after 24 hrs by agar well diffusion assay; type: functional
MCF7 = experiment: Growth inhibition of human MCF7 cells assessed as cell growth at 10^-5 M incubated for 48 hrs by sulforhodamine B assay relative to control; type: cell-based; design: scale not given: the % may be the effect or the level left; details: mcf7, 48 h, 10 µM
SW-620 = experiment: Growth inhibition of human SW620 cells assessed as cell growth at 10^-5 M incubated for 48 hrs by sulforhodamine B assay relative to control; type: cell-based; design: scale not given: the % may be the effect or the level left; details: sw-620, 48 h, 10 µM
NCI-H23 = experiment: Growth inhibition of human NCI-H23 cells assessed as cell growth at 10^-5 M incubated for 48 hrs by sulforhodamine B assay relative to control; type: cell-based; design: scale not given: the % may be the effect or the level left; details: nci-h23, 48 h, 10 µM
NCI-H322M = experiment: Growth inhibition of human NCI-H322M cells assessed as cell growth at 10^-5 M incubated for 48 hrs by sulforhodamine B assay relative to control; type: cell-based; design: scale not given: the % may be the effect or the level left; details: 10 µM
SF-295 = experiment: Growth inhibition of human SF295 cells assessed as cell growth at 10^-5 M incubated for 48 hrs by sulforhodamine B assay relative to control; type: cell-based; design: scale not given: the % may be the effect or the level left; details: sf-295, 48 h, 10 µM
MDA-MB-468 = experiment: Growth inhibition of human MDA-MB-468 cells assessed as cell growth at 10^-5 M incubated for 48 hrs by sulforhodamine B assay relative to control; type: cell-based; design: scale not given: the % may be the effect or the level left; details: mda-mb-468, 48 h, 10 µM
[3] = tested on: Mycobacterium tuberculosis; experiment: Potency index, ratio of isoniazid MIC to compound MIC for antitubercular activity against Mycobacterium tuberculosis RCMB 010126 clinical isolate; type: functional
[4] = Selectivity index, ratio of GI50 for mouse RAW264.7 cells to MIC for Mycobacterium aurum infected in mouse RAW264.7 cells; type: toxicity, cell-based; details: read-out: Selectivity Index
HOP-62 = experiment: Growth inhibition of human HOP62 cells assessed as cell growth at 10^-5 M incubated for 48 hrs by sulforhodamine B assay relative to control; type: cell-based; design: scale not given: the % may be the effect or the level left; details: hop-62, 48 h, 10 µM
SK-MEL-28 = experiment: Growth inhibition of human SK-MEL-28 cells assessed as cell growth at 10^-5 M incubated for 48 hrs by sulforhodamine B assay relative to control; type: cell-based; design: scale not given: the % may be the effect or the level left; details: sk-mel-28, 48 h, 10 µM
[5] = Selectivity index, ratio of IC50 for human WI38 cells to MIC for Mycobacterium tuberculosis RCMB 010126 clinical isolate; type: toxicity; details: read-out: Selectivity Index
OVCAR-3 = experiment: Growth inhibition of human OVCAR3 cells assessed as cell growth at 10^-5 M incubated for 48 hrs by sulforhodamine B assay relative to control; type: cell-based; design: scale not given: the % may be the effect or the level left; details: ovcar-3, 48 h, 10 µM

SMILES	Ratio (Staphylococcus aureus [1])	Activity (M14) [%]	Activity (MOLT-4) [%]	Activity (SN12C) [%]	Activity (NCI-H460) [%]	Activity (Malme-3M) [%]	Activity (COLO 205) [%]	Activity (RPMI-8226) [%]	Activity (U-251) [%]	Activity (UACC-62) [%]	Activity (Hs-578T) [%]	Activity (NCI-H226) [%]	Activity (DU-145) [%]	Activity (HT-29) [%]	MIC (Pseudomonas aeruginosa) [µg/mL]	Activity (MDA-MB-435) [%]	Activity (LOX IMVI) [%]	Activity (EKVX) [%]	Activity (CCRF-CEM) [%]	Activity (UACC-257) [%]	further results
CC(=O)c1sc(/N=C2\NC(=O)/C(=C3/C(=O)N(C)c4ccc(Cl)cc43)S2)nc1C	2	100.08	105.36	96.85	113.18	85.96	108.28	110.22	113.76	84.61	115.73	94.2	100.78	98.45	0.98 (≈ 2.26 µM)	101.04	88.14	95.78	111	114.2	Activity (T47D): 106.34%; Activity (A498): 104.41%; diameter of the inhibition zone (DIZ) (Staphylococcus aureus [2]): 22.4 mm; Activity (MCF7): 86.13%; Activity (SW-620): 119.01%; Activity (NCI-H23): 96.3%; Activity (NCI-H322M): 96.29%; Activity (SF-295): 101.25%; Activity (MDA-MB-468): 94.2%; Ratio [3]: 2; selectivity ratio [4]: 5; Activity (HOP-62): 116.23%; Activity (SK-MEL-28): 99.13%; selectivity ratio [5]: 50; Activity (OVCAR-3): 96.17%
CCOC(=O)c1sc(/N=C2\NC(=O)/C(=C3/C(=O)N(Cc4ccccc4)c4ccc(Cl)cc43)S2)nc1C	2	98.8	97.7	102.35	101.98	102.79	101.47	99.02	99.74	103.68	94.4	94.7	104.75	100.13	1.95 (≈ 3.62 µM)	107.3	96.03	100.9	98.38	106.14	Activity (T47D): 96.84%; Activity (A498): 104.48%; diameter of the inhibition zone (DIZ) (Staphylococcus aureus [2]): 22.5 mm; Activity (MCF7): 97.06%; Activity (SW-620): 98.41%; Activity (NCI-H23): 96.32%; Activity (NCI-H322M): 111.22%; Activity (SF-295): 103.03%; Activity (MDA-MB-468): 108.31%; Ratio [3]: 2; selectivity ratio [4]: 1.25; Activity (HOP-62): 98.01%; Activity (SK-MEL-28): 113.38%; selectivity ratio [5]: 133; Activity (OVCAR-3): 105.46%
